From patent US12139481B2, “Compositions comprising macrocycle derivatives incorporating bridged macrocycles and methods of producing and using same” (Southwestern Oklahoma State University, priority 2015, dated 2024)

Legend:
[1] = test system: Plasmodium falciparum W2 clone (Indochina, chloroquine-resistant); test: In vitro antimalarial assay, chloroquine-resistant W2 clone; format: cell-based; details: W2 clone; for IC50: converted with molecular weight, read-out: P. falciparum W2 IC50; for X more potent than chloroquine: molar IC50 ratio versus chloroquine
Procedure: (§1) The compounds were assayed for in vitro antimalarial activity against the W2 clone and D6 clone of the pathogenic Plasmodium falciparum. The strains of P. falciparum were obtained from the Division of Experimental Therapeutics, Walter Reed Army Institute of Research, Washington D.C. Strains of Sierra Leon D6 and Indochina W2 are chloroquine-sensitive and chloroquine-resistant, respectively. The parasite was grown in type A human RBCs and, two strains subcultured daily with fresh medium and blood cells. On the day of the assay, a suspension of infected blood cells (2% parasitemia and 2% hematocrit) was prepared using type A human red blood cells. Assays were performed by standard 96-well flat-bottomed microplate methods and done in duplicate at different concentrations. IC50 values were obtained from the dose curves. Artemisinin and chloroquine were included in each assay as the drug controls, and DMSO was used as vehicle control. The whole protocol was developed based on the published method of Makler. The cytotoxicity assays were also performed in parallel against the Vero cells, and the selectivity index was measured. A selectivity index of >9 was considered to indicate a lead for further development of antimalarial drug.

[2] = test system: Plasmodium falciparum D6 clone (Sierra Leon, chloroquine-sensitive); test: In vitro antimalarial assay, chloroquine-sensitive D6 clone; format: cell-based; details: D6 clone; for IC50: converted with molecular weight, read-out: P. falciparum D6 IC50; for X more potent than chloroquine: molar IC50 ratio versus chloroquine
Procedure: as §1

[3] = test system: methicillin-resistant S. aureus ATCC 33591 (MRS); test: Antibacterial broth dilution assay against MRSA (modified CLSI); format: cell-based, Staphylococcus aureus; details: for MRSa IC50 / IC50: in vitro; for IC50: converted with molecular weight; for X more potent than ciprofloxacen: molar IC50 ratio versus ciprofloxacen
Procedure: General Experimental Procedures. All organisms were obtained from the American Type Culture Collection (Manassas, VA) and include the fungi Candida albicans ATCC 90028, C. glabrata ATCC 90030, C. krusei ATCC 6258, and Cryptococcus neoformans ATCC 90113, and the bacteria Staphylococcus aureus ATCC 29213 and methicillin-resistant S. aureus ATCC 33591 (MRS). All organisms were tested using modified versions of the CLSI (formerly NCCLS) methods. For all organisms, optical density was used to monitor growth (NCCLS, Reference Method for Broth Dilution Antifungal Susceptibility Testing of Yeasts; Approved Standard M27-A2. National Committee on Clinical Laboratory Standards, 2002 22 (15); and NCCLS, Methods for Dilution Antimicrobial Susceptibility Tests for Bacteria that Grow Aerobically; Approved Standard, Seventh Edition M7-A7. National Committee on Clinical Laboratory Standards, 2006. 26(2)).
Samples (dissolved in DMSO) were serially-diluted in 20% DMSO/saline and transferred (10 μL) in duplicate to 96 well flat bottom microplates. Inocula were prepared by correcting the OD630 of microbe suspensions in incubation broth [RPMI 1640/0.2% dextrose/0.03% glutamine/MOPS @ pH 6.0 (Cellgro) for Candida spp., Sabouraud Dextrose for C. neoformans, and cation-adjusted Mueller-Hinton (Difco) @ pH 7.3 for Staphylococcus spp. to afford an assay volume of […] and final target inocula of: Candida spp. and C. neoformans: 1.5×10^3, and Staphylococcus spp.: 5.0×10^5 CFU/ml. Final sample test concentrations were 1/100th the DMSO stock concentration. […] All organisms were read at either 530 nm using the Biotek Powerwave XS plate reader (Bio-Tek Instruments, Vermont) prior to and after incubation: Candida spp. at 35° C. for 46-50 h, Staphylococcus spp. at 35° C. for 16-20 h, and C. neoformans at 35° C. for 70-74 h. IC50s (concentrations that afford 50% inhibition relative to controls) were calculated using XLfit 4.2 software (IDBS, Alameda, CA) using fit model 201. The MIC is defined as the lowest test concentration that allows no detectable growth. Minimum fungicidal or bactericidal concentrations were determined by removing 5 μl from each clear (or blue) well, transferring to fresh media, and incubating as previously mentioned. The MFC/MBC is defined as the lowest test concentration that kills the organism (allows no growth).
Primary Analysis. Samples were tested in duplicate at one test concentration (50 μg/mL), and percent inhibitions were calculated relative to blank and growth controls. Samples showing 50% inhibition in at least one test organism were selected for dose response (Secondary) studies.
Secondary Analysis. Extracts from the Primary Assay, and first-run pure compounds and column fractions were tested in duplicate at 3 test concentrations (5-fold dilutions). Samples dissolved to 20 mg/mL in DMSO were tested at 200, 40, and 8 μg/mL. Samples dissolved to 2 mg/mL in DMSO were tested at 20, 4, and 0.8 μg/mL.

[4] = test system: S. mansoni newly transformed schistosomula (NTS); test: In vitro testing on Schistosoma mansoni newly transformed schistosomula (NTS), viability score; format: cell-based; details: for IC50: NTS, 72 hours post-incubation
Method in brief: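 Mechanically transformed S. mansoni (Liberian strain) NTS, cultured overnight, exposed at 100 per well to compound (from 10 mM DMSO stock; ≤1% DMSO controls) at 37 °C, 5% CO2 for 72 h. Viability scored microscopically from 3 (normal activity, intact tegument) to 0 (dead, granulated).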

[5] = test system: L. donovani promastigotes; test: Antileishmanial Alamar Blue assay on promastigotes; format: cell-based, Leishmania donovani; details: for X more potent than Pentamidine: L. donovani, ratio of molar IC50 to Pentamidine; for L. donovani IC50 / IC50: promastigotes, 48 hours, Alamar Blue; for IC50: read-out: L. donavani IC50
Method in brief: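 Alamar Blue fluorescence (544/590 nm) quantified growth after 48 hours at 26° C of compound-treated promastigotes. Parasites were seeded at 5×10^5/mL in RPMI 1640 plus 10% FCS; drug range 50-3.1 μg/mL, and IC50 derived by plotting percent growth against test concentration.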

[6] = test system: Staphylococcus aureus ATCC 29213; test: Antibacterial broth dilution assay against S. aureus (modified CLSI); format: cell-based; details: for S. aureus IC50 / IC50: in vitro; for IC50: converted with molecular weight; for X more potent than ciprofloxacen: molar IC50 ratio versus ciprofloxacen
Method in brief: (§2)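 Growth read by optical density at 530 nm, duplicate wells, 1% final DMSO. Staphylococcus spp.: Mueller-Hinton pH 7.3, 5.0×10^5 CFU/ml, 35 °C for 16-20 h; Candida spp.: RPMI/dextrose/glutamine/MOPS pH 6.0, 1.5×10^3 CFU/ml, 35 °C for 46-50 h. Reported values are 50% inhibition versus controls, no-growth MIC, and killing MFC/MBC.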

[7] = test system: Cryptococcus neoformans ATCC 90113; test: Antimicrobial microdilution assay against Cryptococcus neoformans (modified CLSI/NCCLS, optical density); format: cell-based; details: for X more potent than Amphotericin B: C. neoformans, ratio of molar IC50 to Amphotericin B
Method in brief: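 Fungicidal endpoint taken by subculturing 5 μL from each clear well onto agar, MFC being the lowest concentration with no regrowth. Duplicate wells of serially diluted compound (20% DMSO/saline) in RPMI pH 6.0, read at 630 nm pre- and post-incubation, under modified CLSI methods. IC50 means 50% growth inhibition against controls.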

C. glabrata ATCC 90030 = test: Antifungal broth dilution assay against C. glabrata (modified CLSI); format: cell-based, Candida glabrata; details: for C. glabrata IC50 / IC50: in vitro; for IC50: converted with molecular weight; for X more potent than Amphotericin B: molar IC50 ratio versus amphotericin B
Method in brief: as §2

S. mansoni adult worms = test: In vitro tests on Schistosoma mansoni adult worms, viability score; format: cell-based
Procedure: All assays were prepared in compliance with the laboratory SOP described herein above. Female NMRI mice (age 3 weeks, weight ca. 14 g) were purchased from Charles River (Sulzfeld) or Harlan Laboratories (Blackthorn, United Kingdom). The animals were allowed to adapt for 1 week under controlled conditions (22° C., 50% humidity, 12 hours light, and free access to water and rodent diet) before experimental handling. To obtain adult schistosomes, NMRI mice were infected subcutaneously with 80 to 100 cercariae. After 7 to 8 weeks, the mice were euthanized with CO2, and the worms were collected from the hepatic portal and mesenteric veins. Two pairs of adult worms were placed in each well of a 24-well plate with 2 ml culture medium and the test compound. […] Worms were kept in an incubator at 37° C. and 5% CO2 for up to 72 hours. After 72 hours, worm condition was microscopically evaluated using a scale from 3 (normal activity and no tegument alteration) to 0 (dead, completely granulated). Active compounds progressed into IC50 determination. […] For the in vitro drug sensitivity assays, all viability scores were averaged across replicates and normalized to the average viability scores of the control wells (Microsoft Office Excel 2010). […]

[8] = in vitro, C. neoformans ATCC 90113

| Compound | P. falciparum W2 IC50 [1] | IC50 [1] | X more potent than chloroquine [1] | P. falciparum D6 IC50 [2] | IC50 [2] | X more potent than chloroquine [2] | MRSa IC50 [3] | IC50 [3] | X more potent than ciprofloxacen [3] | Effect at 72 h (%) ([4]; NTS S. mansoni, 33 μM) | X more potent than Pentamidine [5] | L. donovani IC50 [5] | S. aureus IC50 [6] | IC50 [6] | X more potent than ciprofloxacen [6] | other results |
| --- | --- | --- | --- | --- | --- | --- | --- | --- | --- | --- | --- | --- | --- | --- | --- | --- |
| [Cl-].[Cl-].[Mn+2].c1ccc(CN2CCCN3CCN(CCCN(Cc4ccccc4)CC3)CC2)cc1 [NS06, Mn(Bn2Bcyclam)Cl2] | 0.0674 µg/mL | 0.127 µM | 5.36 | 0.0838 µg/mL | 0.157 µM | 0.23 | 1.510 µg/mL | 2.84 µM | 0.07 | 81.08% | 0.13 | 21.99 µg/mL | 2.310 µg/mL | 4.34 µM | 0.06 | IC50 [5]: 41.3 µM |
| CC(=O)[O-].CC(=O)[O-].CN1CCCN2CCN(CCCN(Cc3cccc(CN4CCCN5CCN(C)CCCN(CC5)CC4)c3)CC2)CC1.F[P-](F)(F)(F)(F)F.F[P-](F)(F)(F)(F)F.[Ni+2].[Ni+2] [CDG009, [Ni2(m-CB-Cyclams)(OAc)2][PF6]2] | – | – | – | – | – | – | 5.410 µg/mL | 4.88 µM | 0.04 | 0.00% | – | – | 6.27 µg/mL | 5.66 µM | 0.05 | X more potent than Amphotericin B [7]: 0.07; C. neoformans IC50 [7, 8]: 3.530 µg/mL; IC50 ([7]; in vitro, C. neoformans ATCC 90113, read-out: C. neoformans IC50 (mol/L)): 3.19 µM; C. glabrata IC50 (C. glabrata ATCC 90030): 5.150 µg/mL; IC50 (C. glabrata ATCC 90030): 4.65 µM; X more potent than Amphotericin B (C. glabrata ATCC 90030): 0.31 |
| [Cl-].[Cl-].[Mn+2].c1ccc(CN2CCN3CCN(CC2)CCN(Cc2ccccc2)CC3)cc1 [NS29, Mn(Bn2Bcyclen)Cl2] | 0.2747 µg/mL | 0.545 µM | 1.25 | 0.1337 µg/mL | 0.265 µM | 0.14 | 5.750 µg/mL | 11.4 µM | 0.02 | 43.24% | 0.35 | 7.70 µg/mL | 5.880 µg/mL | 11.7 µM | 0.02 | IC50 [5]: 15.3 µM |
| CN1CCCN2CCN(CCCN(Cc3ccccc3)CC2)CC1.[Cl-].[Cl-].[Fe+2] [NS12] | 0.1164 µg/mL | 0.255 µM | 2.67 | 0.1371 µg/mL | 0.3 µM | 0.12 | – | – | – | 100.00% | – | – | – | – | – | Effect at 72 h (%) ([4]; NTS S. mansoni at 10 μM): 100.00%; IC50 [4]: 6.69 µM; Effect at 72 h (%) (S. mansoni adult worms; adult S. mansoni at 10 μM, 72 h): 2.08% |
| CC(=O)[O-].CC(=O)[O-].CN1CCCN2CCN(CCCN(Cc3cccc(CN4CCCN5CCN(C)CCCN(CC5)CC4)c3)CC2)CC1.F[P-](F)(F)(F)(F)F.F[P-](F)(F)(F)(F)F.[Zn+2].[Zn+2] [RM51, [Zn2(m-CB-Cyclams)(OAc)2][PF6]2] | – | – | – | – | – | – | 3.190 µg/mL | – | 0.07 | 0.00% | 0.30 | 19.82 µg/mL | 6.17 µg/mL | – | 0.05 | X more potent than Amphotericin B [7]: 0.14; C. neoformans IC50 [7, 8]: 1.850 µg/mL |
| CN1CCCN2CCN(CCCN(Cc3ccc(CN4CCCN5CCN(C)CCCN(CC5)CC4)cc3)CC2)CC1.[Cl-].[Cl-].[Cl-].[Cl-].[Mn+2].[Mn+2] [JGL16A] | 0.8002 µg/mL | 0.959 µM | 0.71 | 0.7989 µg/mL | 0.957 µM | 0.04 | 7.770 µg/mL | 9.31 µM | 0.02 | 5.41% | – | – | 8.090 µg/mL | 9.69 µM | 0.03 | C. glabrata IC50 (C. glabrata ATCC 90030): 18.600 µg/mL; IC50 (C. glabrata ATCC 90030): 22.3 µM; X more potent than Amphotericin B (C. glabrata ATCC 90030): 0.06 |
| O=C(C1CCCCC1)N1CC(=O)N2CCc3ccccc3C2C1 (stereo not shown) [Praziquantel, reference compound] | – | – | – | – | – | – | – | – | – | – | – | – | – | – | – | IC50 ([4]; Schistosoma mansoni): 2.2 µM; IC50 (S. mansoni adult worms; Schistosoma mansoni, adult worms, 72 hours post-exposure, read-out: IC50 [μM] Adults): 0.1 µM |
